One assay addresses apo-MCR-1-S (Escherichia coli, UniProt A0A0R6L508). Description: biochemical. As to the method: The apo-MCR-1-S without any tag was diluted into proper concentration for ITC assay. […] The stoichiometry of metal binding and binding affinities were obtained by fitting the data with proper equations and these assays were performed in triplicate.
For a further assay, the target named is MCR-1-S (Escherichia coli, UniProt A0A0R6L508). The note with it: ICP-MS. Here is the method:
The equilibrium dialysis was used to monitor the exact binding process. Apo-MCR-1-S was put in the inner side of dialysis membrane and outer side was supplemented with Au^+, Ag^+ or Zn^2+ at different molar ratios. Zn^2+ displacement analysis was performed by adding equivalents of Au^+ and Ag^+ into outer side of the membrane.

For a further assay, the target named is T1, full length MCR-1 (Escherichia coli, UniProt A0A0R6L508).
T1 construct: The full length MCR-1 was pre-treated with or without 10 molar equivalents
T1 sequence (A0A0R6L508 whole entry): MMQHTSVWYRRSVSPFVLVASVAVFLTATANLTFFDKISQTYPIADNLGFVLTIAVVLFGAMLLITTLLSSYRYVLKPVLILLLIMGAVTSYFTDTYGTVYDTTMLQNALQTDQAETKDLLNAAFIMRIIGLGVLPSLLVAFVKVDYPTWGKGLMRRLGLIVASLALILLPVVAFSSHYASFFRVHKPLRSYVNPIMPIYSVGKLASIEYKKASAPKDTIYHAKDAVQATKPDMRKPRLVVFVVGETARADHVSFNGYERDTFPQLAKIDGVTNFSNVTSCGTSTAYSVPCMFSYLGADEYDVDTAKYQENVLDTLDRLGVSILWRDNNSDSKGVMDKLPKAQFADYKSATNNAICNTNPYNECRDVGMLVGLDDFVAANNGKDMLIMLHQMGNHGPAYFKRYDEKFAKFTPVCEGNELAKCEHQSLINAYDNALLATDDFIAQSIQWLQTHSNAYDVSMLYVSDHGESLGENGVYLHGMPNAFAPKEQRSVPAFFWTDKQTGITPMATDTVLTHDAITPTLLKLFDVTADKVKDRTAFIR
The format is biochemical. As to conditions: MCR-1 pre-treated with 10 molar equivalents, 25° C. overnight. Here is the method:
TLC plate was used to separate NBD-glycerol from the MCR-1 reaction mixture in a mobile phase [ethyl acetate:methanol:water, 7:2:1 (vol/vol)]. The reaction product was analyzed by exposing the TLC plate to UV light (455-485 nm) and visualizing the fluorescent signals with a gel imaging system. […] Cellular Thermal Shift Assay

For another assay, the system named is MCR-1-negative E. coli. The class given is cell-based. The note with it: MCR-1-negative E. coli strain. Here is the method: (§1) MIC values of either antibiotics or Bi(III) compounds were determined firstly by standard broth micro-dilution method (Clinical and Laboratory Standards Institute (CLSI) M100-S20, 2010). Briefly, bacteria cells were cultured in LB broth overnight at 37° C. at 250 rpm and the optical density was measured at 600 nm (OD600) using a microtiter plate reader. The bacterial density was adjusted to about 1×10^6 CFU mL^−1 and checked by CFU counting on agar plates afterwards. Tested compounds were added triplicately into individual wells of flat-bottomed 96-well plates and performed two-fold serial dilution, followed by addition of prepared bacterial inoculum. The plate was then incubated at 37° C. overnight. Lanes with no antibiotics or bismuth compounds served as positive controls and lanes with no bacteria added served as negative controls. The MIC was determined as the lowest concentration of compounds that could inhibit the growth of microorganism by both visual reading and OD600 measurement.
(§2) Other procedures and the check of MIC were kept strictly the same. […] Synergism was defined as FICI≤0.5, indifference was defined as FICI>0.5 and <4, and antagonism was defined as FICI≥4. All of the determinations were performed at least in triplicate on different days.

For the next assay, the system named is MCR-1-producing E. coli. Description: Mutant prevention concentration (MPC) test. The class given is cell-based. The note with it: for mutant colonies: colistin alone at 16×MIC, or colistin with 30 μg mL^−1 of the compound; for MPI of colistin (MPC/MIC): in presence of 30 μg mL^−1 of the compound. An excerpt: Given the very notion of MIC, all susceptible bacterial cells are suppressed or killed by a dose above it. […] The dose of compounds at MIC adversely amplifies the population of those less-susceptible mutants. Thus, mutant prevention concentration (MPC), defined as a compound concentration that suppresses the growth of first-step resistant mutant in large quantity of susceptible bacterial population, together with mutant prevention index (MPI=MPC/MIC), is introduced to estimate the mutant prevention ability of exemplary compound combination. […] All the plates were incubated at 37° C. Upon incubation for 48 hours, up to 4 colonies were picked and re-cultured from any plates with observable colonies, followed by the measurement of their MIC values. […] The concentration that restricted the growth of mutant colonies was determined as MPC.

The test system of assay [1] is K. pneumoniae 9607 (MCR-1+). Description: Murine infection model, bacterial loads in liver and spleen. The class given is in vivo, mice. As to conditions: monotherapy, single i.p. dose 1 hr post-infection, 48 hrs; colistin 2 mg kg^−1, auranofin 0.5 mg kg^−1, AgNO3 1.5 mg kg^−1. Here is the method:
For local infection experiment, an overnight culture of K. pneumoniae 9607 (MCR-1^+) was performed 1:250 dilution in LB broth and re-grew to about OD600 0.5 at 37° C., 250 rpm. Bacterial pellets were collected and washed by PBS buffer three times for further use. Mice were infected intraperitoneally (i.p.) with a dose of 2×10^6 CFU of bacteria in PBS. […] All the mice were scarified at 48 hrs following systemic infection, and bacterial loads in livers and spleens were examined by agar plating. […] Body weights and mice survival were monitored till endpoint of the experiment.

The subject of another assay is E. coli CKE. The experiment in a line: Murine systemic infection model, survival assay. The class given is in vivo, mice. The note with it: for mice rescued from death: combination with colistin 1 mg kg^−1, single i.p. dose 0.5 hr post infection; for protection of mice from death: mono-therapy, AgNO3 0.75 mg kg^−1 or auranofin 0.25 mg kg^−1 i.p., within 72 hours.
Another assay concerns the target Zn(II)-MCR-1-S (Escherichia coli, UniProt A0A0R6L508). As to conditions: PAR assay.
Another assay concerns the target T2, MCR-1 (Escherichia coli, UniProt A0A0R6L508).
T2 construct: solvable truncated MCR-1 fragment (200-541 aa) but without any tag; expressed in transfected cells; host or cells: E. coli BL21(DE3)
The class given is cell-based, E. coli BL21(DE3). As to conditions: overnight exposure, in cellulo.

A further assay concerns S. flexneri (MCR-1+). The format is cell-based. The note with it: MCR-1 positive S. flexneri; AgNO3 10 μM, auranofin 3 μM, Au(PEt3)Cl 3 μM; untreated 4.1, MCR-1 negative 6.1.
Assay [2] relates to MCR-producing E. coli. The format is cell-based. Here is the method: as §1, §2
In assay [3] the test system is MCR-producing E. coli. The experiment in a line: In vitro serial passage resistance assay. The format is cell-based. As to conditions: colistin combined with the compound. Here is the method: The in vitro passage assay was also conducted to evaluate the antimicrobial durability of the combination. In a typical experiment, an overnight culture of MCR-producing E. coli was diluted to 10^7 CFU mL^−1 in LB broth. […] All the plates were incubated at 37° C. and the growth of cultures was checked at 24 h intervals. Cultures from the second highest concentrations that allowed growth were performed 1:1000 dilution into fresh medium supplemented with the same concentrations of drugs. For colistin, 1-fold of MIC was set as 4 μg mL^−1. This in vitro passage was repeated for 20 days. MIC of MER was determined every four passages.

Chain of MCR-1-S (A0A0R6L508 200-541): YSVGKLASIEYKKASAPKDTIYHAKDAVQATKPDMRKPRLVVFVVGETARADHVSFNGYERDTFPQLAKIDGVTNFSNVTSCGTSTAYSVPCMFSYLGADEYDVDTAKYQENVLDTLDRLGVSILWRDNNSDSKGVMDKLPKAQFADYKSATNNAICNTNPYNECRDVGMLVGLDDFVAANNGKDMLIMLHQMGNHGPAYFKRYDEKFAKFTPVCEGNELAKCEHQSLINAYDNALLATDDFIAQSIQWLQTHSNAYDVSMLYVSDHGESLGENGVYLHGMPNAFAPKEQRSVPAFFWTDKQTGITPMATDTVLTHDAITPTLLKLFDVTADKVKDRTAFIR
Chain of apo-MCR-1-S (A0A0R6L508 200-541): as above
T2 sequence (A0A0R6L508 200-541): as above
Chain of Zn(II)-MCR-1-S (A0A0R6L508 200-541): as above
Procedure for S. flexneri (MCR-1+): Membrane potential assay was carried out based on a modified method according to manufacturer's instructions. […] The bacterial pellets were then resuspended in PBS supplemented with DiOC2 (30 μM) and stained at 37° C. for 30 mins. Stained bacteria were then assayed in a flow cytometer and the signals from FITC-A (488 nm, green gate) and PI-A (633 nm, red gate) were collected and then analyzed. S. flexneri without treatment served as the control.
Procedure for Zn(II)-MCR-1-S: UV-visible spectra were collected by Varian Cary 50 spectrophotometer at a rate of 360 nm/min by using the 1 cm^−1 quartz cuvette. 4-(2-pyridylazo) resorcinol (PAR), a Zn(II) chelator, can strongly chelate free Zn^2+ to form Zn(PAR)2 complex, leading to an obvious migration of maximum absorbance peak from ca. 420 nm to ca. 500 nm. Herein, we incubated apo-MCR-1-S with 10 folds Zn^2+ in dialysis buffer (20 mM HEPES, pH=7.4, 50 mM NH4NO3). After 12 hour incubation, Zn(II)-MCR-1-S was separated into aliquots and then mixed with Ag(I), Au(I) or even their compounds at different molecular ratios. Dialysis buffer instead of these metal compounds was added into Zn(II)-MCR-1-S solution as negative controls. For positive control, 10-folds of Zn(II) were mixed with apo-MCR-1-S. By comparing the peak intensities among different groups, the amounts of released Zn(II) could be calculated. UV-visible spectra were recorded in a range of 220-600 nm at least 30 min later after incubation.

In turn, `[Ag+]` [AgNO3, silver nitrate] gave a Kd at apo-MCR-1-S of around 200 nM. In addition, at MCR-1-S, the “replacement of protein bound metal by extraneous Zn(II)” value is listed as “could not be replaced”. In addition, the “equivalents of metal that replaced about 3 molar equivalents of Zn(II)” value at MCR-1-S (equilibrium dialysis) was 16 equivalent. In addition, the “migration of NBD-glycerol (cleavage activity of MCR-1)” value at full length MCR-1 is reported as “none of AgNO3, AuCl or Au(PEt3)Cl treatment group exhibited observable migration”. The “inhibition in combination with colistin” value in the assay on MCR-1-negative E. coli was “no inhibition was observed”. Further, in the assay with MCR-1-producing E. coli, the mutant colonies result is recorded as “no mutant colony was observable” and the “MPI of colistin (MPC/MIC)” value amounted to 0.5. The “CFUs in liver and spleen” value in [1] is recorded as ~10^5 cfu mL^−1 g^−1. Also, in the assay on E. coli CKE, the “mice rescued from death” value is 3 out of 6 and the “protection of mice from death” value is listed as “failed to protect any of the mice from death”. Also, the “release of Zn(II) from MCR-1-S upon titration” value at Zn(II)-MCR-1-S is reported as “completely released”.

At apo-MCR-1-S, `[Zn+2]` [Zn(Ac)2, zinc(II) acetate] showed a Kd of around 2450 nM.

With `CC(=O)OC[C@H]1O[C@@H]([S-])[C@H](OC(C)=O)[C@@H](OC(C)=O)[C@@H]1OC(C)=O.CCP(CC)CC.[Au+]` [auranofin], the “decrease of cellular thermal stability of MCR-1, ΔTm” value on MCR-1 was determined as 5.2 °C. The “green/red fluorescent ratio after treatment” value with S. flexneri (MCR-1+) turned out to be 6.1. The “inhibition in combination with colistin” value in the assay on MCR-1-negative E. coli is recorded as “no inhibition was observed”. Moreover, the “MIC of colistin in combination with the compound” value in the assay on MCR-producing E. coli [2] (checkerboard, lowest colistin MIC reached with increasing compound) turned out to be 0.25 µg/mL. Moreover, the “FIC index (FICI) with colistin” value in the assay with MCR-producing E. coli [2] (synergism FICI≤0.5) stood at 0.375. Moreover, in the assay with MCR-1-producing E. coli, the mutant colonies result is listed as “no mutant colony was observable” and the “MPI of colistin (MPC/MIC)” value is given as 0.5. Also, in the assay with MCR-producing E. coli [3], the “fold rise of colistin MIC after 16 serial passages” value came out at 4 folds. The “CFUs in liver and spleen” value in [1] was ~10^5 cfu mL^−1 g^−1. Further, in the assay on E. coli CKE, the “mice rescued from death” value is listed as “protect all the infected mice from death” and the “protection of mice from death” value is recorded as “failed to protect any of the mice from death”.

Broadly, the Kd is the constant that tells how readily two partners part at equilibrium. A higher Kd goes with weaker binding.

For the origin of these results see patent US12357657B2, “Silver-/gold-compounds and methods thereof” (priority 2019, dated 2025).
